Measured values published in ChEMBL document CHEMBL1121775, “Synthesis and antimalarial effects of N2-aryl-N4-[(dialkylamino)alkyl]- and N4-aryl-N2-[(dialkylamino)alkyl]-2,4-quinazolinediamines” (J Med Chem, 1981).
Where “and” joins values, the source holds several entries; their conditions need not be identical. Identical values can stand only once.

Legend:
Plasmodium berghei [1] = test: Antimalarial effect against trophozoite-induced Plasmodium berghei in mice (Mus musculus) at 160 mg/kg subcutaneous dose; type: functional
Plasmodium berghei [2] = test: Antimalarial effect against trophozoite-induced Plasmodium berghei in mice (Mus musculus) after 20 mg/kg subcutaneous dose; type: functional
Plasmodium berghei [3] = test: Antimalarial effect against trophozoite-induced Plasmodium berghei in mice (Mus musculus) at 320 mg/kg subcutaneous dose; type: functional
Plasmodium berghei [4] = test: Antimalarial effect against trophozoite-induced Plasmodium berghei in mice (Mus musculus) after 40 mg/kg subcutaneous dose; type: functional
Plasmodium berghei [5] = test: (§1) Antimalarial effect against trophozoite-induced Plasmodium berghei in mice (Mus musculus) at 640 mg/kg subcutaneous dose; type: functional
Plasmodium berghei [6] = test: Antimalarial activity against trophozoite-induced Plasmodium berghei in mice (Mus musculus); type: functional
[7] = The ratio of SD90 of the quinine hydrochloride, to the SD90 of the test substance for the Dose of 80 mg/kg; type: functional
Plasmodium berghei [8] = test: Antimalarial effect against trophozoite-induced Plasmodium berghei in mice (Mus musculus) at 80 mg/kg subcutaneous dose; type: functional
Mus musculus [9] = test: Number of toxic deaths at a dose of 160 mg/kg; type: functional
Plasmodium berghei [10] = test: Antimalarial activity against trophozoite-induced Plasmodium berghei in mice (Mus musculus) at 160 mg/kg subcutaneous dose; type: functional
Mus musculus [11] = test: Number of toxic deaths at a dose of 640 mg/kg; type: toxicity, organism-based; parameters: dose 640 mg/kg; conditions: in vivo
Mus musculus [12] = test: Number of mice cured at a dose of 640 mg/kg sc; type: functional; conditions: route subcutaneous
Mus musculus [13] = test: Antimalarial effect against trophozoite-induced Plasmodium berghei in mice (Mus musculus) at dosage of 320 mg/kg after subcutaneous administration; No. of mice (Mus musculus) surviving after 60 days 4; type: functional
Mus musculus [14] = test: Number of mice cured at a subcutaneous dose of 160 mg/kg.; type: functional; conditions: 160 mg/kg
Mus musculus [15] = test: Antimalarial effect against trophozoite-induced Plasmodium berghei in mice (Mus musculus) at dosage of 160 mg/kg after subcutaneous administration; No. of mice (Mus musculus) surviving after 60 days 3; type: functional
[16] = The ratio of SD90 of the quinine hydrochloride, to the SD90 of the test substance for the Dose of 8.5 mg/kg; type: functional
[17] = The ratio of SD90 of the quinine hydrochloride, to the SD90 of the test substance for the Dose of 30 mg/kg; type: functional
[18] = The ratio of SD90 of the quinine hydrochloride, to the SD90 of the test substance for the Dose of 8.4 mg/kg; type: functional
Mus musculus [19] = test: Number of mice cured at a dose of 320 mg/kg sc; type: functional; conditions: route subcutaneous, 320 mg/kg
Mus musculus [20] = test: Number of mice cured at a subcutaneous dose of 640 mg/kg.; type: functional
Mus musculus [21] = test: Number of toxic deaths at a dose of 320 mg/kg; type: toxicity, organism-based; parameters: dose 320 mg/kg; conditions: in vivo
[22] = The ratio of SD90 of the quinine hydrochloride, to the SD90 of the test substance for the Dose of 40 mg/kg; type: functional
Mus musculus [23] = test: Number of mice cured at a subcutaneous dose of 320 mg/kg.; type: functional
[24] = The ratio of SD90 of the quinine hydrochloride, to the SD90 of the test substance for the Dose of 69 mg/kg; type: functional
[25] = The ratio of SD90 of the quinine hydrochloride, to the SD90 of the test substance for the Dose of 155 mg/kg; type: functional
Mus musculus [26] = test: Antimalarial effect against trophozoite induced Plasmodium berghei in mice (Mus musculus) at dosage of 160 mg/kg after subcutaneous administration; No. of mice (Mus musculus) surviving after 60 days 2; type: functional
Mus musculus [27] = test: Antimalarial effect against trophozoite-induced Plasmodium berghei in mice (Mus musculus) at dosage of 80 mg/kg after subcutaneous administration; type: functional
Plasmodium berghei [28] = test: as §1; type: functional; conditions: 640 mg/kg
Mus musculus [29] = test: Antimalarial effect against trophozoite induced Plasmodium berghei in mice (Mus musculus) at dosage of 40 mg/kg after subcutaneous administration; type: functional
[30] = The ratio of SD90 of the quinine hydrochloride, to the SD90 of the test substance for the Dose of 36 mg/kg; type: functional
[31] = The ratio of SD90 of the quinine hydrochloride, to the SD90 of the test substance for the Dose of >33 mg/kg; type: functional

SMILES | MST (Plasmodium berghei [1]; 160 mg/kg) | MST (Plasmodium berghei [2]) [days] | MST (Plasmodium berghei [3]) [days] | MST (Plasmodium berghei [4]; 40 mg/kg) | SD90 (Plasmodium berghei [6]) [mg/kg/day] | MST (Plasmodium berghei [8]) [days] | MST (Plasmodium berghei [4]) [days] | No. of toxic deaths (Mus musculus [11]) | No. of survivals (Mus musculus [12]) | MST (Plasmodium berghei [1]) [days] | No. of toxic deaths (Mus musculus [21]) | further results
Clc1cc(Cl)cc(Nc2nc(NCCN3CCCC3)c3ccccc3n2)c1 | 3.5 days and 4.1 days | 0.5 | 5.9 | 0.9 days and 1.3 days | 80 | 1.7 |  |  |  |  |  | MST (Plasmodium berghei [5]; 640 mg/kg): 10.7 days and 10.3 days; Ratio [7]: 0.9
CCN(CC)CCNc1nc(NCc2ccc(Cl)c(Cl)c2)nc2ccccc12 |  |  |  |  |  |  | 0.7 | 5 |  |  |  | No. of toxic deaths (Mus musculus [9]): 1; MST (Plasmodium berghei [10]): 0.9 days
CN(C)C1CCC(Nc2nc(Nc3ccc(Cl)c(Cl)c3)nc3ccccc23)CC1 (stereo in doubt; 23) |  |  |  | 9.7 days and 9.9 days | 8.5 |  |  |  | 5 |  |  | MST (Mus musculus [13]): 25.9 days; No. of survivals (Mus musculus [14]): 3; MST (Plasmodium berghei [2]; 20 mg/kg): 0.9 days; MST (Mus musculus [15]): 25.4 days; MST (Plasmodium berghei [10]; 160 mg/kg): 27.4 days; Ratio [16]: 8.8
CCN(CC)CCNc1nc(Nc2ccc(Cl)c(Cl)c2)nc2ccc([N+](=O)[O-])cc12 | 7 days and 7.3 days |  |  | 0.4 days and 0.7 days | 30 |  |  |  |  |  |  | MST (Plasmodium berghei [2]; 20 mg/kg): 0.2 days and 0.3 days; MST (Plasmodium berghei [3]; 320 mg/kg): 10.4 days and 10.9 days; MST (Plasmodium berghei [5]): 20.6 days; Ratio [17]: 2.5; MST (Plasmodium berghei [8]; 80 mg/kg): 1.2 days and 1.5 days
CCN1CCC(CNc2nc(Nc3ccc(Cl)c(Cl)c3)nc3ccccc23)CC1 |  | 0.7 |  | 7.5 days and 7.3 days | 8.4 | 9.1 |  |  |  |  |  | Ratio [18]: 8.9; No. of cured (Mus musculus [19]): 5 and 4; No. of cured (Mus musculus [20]): 5; MST (Plasmodium berghei [10]; 160 mg/kg): 23.9 days and 27.9 days
CCN(CC)CCNc1nc(Nc2ccc(OC)c(CN(CC)CC)c2)nc2ccccc12 |  | 0.4 |  |  | 40 | 5.6 | 2.8 | 1 | 2 | 8.6 | 1 | Ratio [22]: 1.9; No. of survivals (Mus musculus [23]): 2
CCN(CC)CCNc1nc(Nc2ccc(Cl)c(Cl)c2)nc2ccc(NCc3ccc(Cl)c(Cl)c3)cc12 |  | 0.2 | 5.6 | 0.2 days and 0.4 days | 69 | 0.4 |  |  |  | 3.8 |  | Ratio [24]: 1.1
CCN(CC)Cc1cc(Nc2nc(NC3CCC(N(C)C)CC3)c3ccccc3n2)ccc1OC (centres undefined) |  | 7.5 |  | 7.7 days and 7.2 days | 155 |  |  | 5 |  |  | 5 | Ratio [25]: 0.5; No. of cured (Mus musculus [20]): 3; MST (Plasmodium berghei [10]): 13 days; MST (Mus musculus [26]): 16.3 days; MST (Mus musculus [27]): 13 days
CCN1CCCC(Nc2nc(Nc3cc(Cl)cc(Cl)c3)nc3ccc(Cl)cc23)C1 (centres undefined) |  | 0.2 | 6.4 |  | 36 | 0.6 | 0.2 |  | 3 | 1 |  | MST (Plasmodium berghei [28]): 7.8 days and 4.8 days; MST (Mus musculus [29]): 0.4 days; Ratio [30]: 2.1
CCOc1ccc(Nc2nc(NCCN(CC)CC)c3cc(Cl)ccc3n2)cc1CN1CCCC1 | 4.8 days and 4.6 days | 0.2 | 7.8 | 0.6 days and 0.2 days | >33 | 1 |  | 3 |  |  | 2 | MST (Plasmodium berghei [28]): 13.3 days and 12.8 days; Ratio [31]: <2.3
